# Test system: 233499-124-R-J3-PDC complex spheroid viability
# Assay: Anticancer human tumor 233499-124-R-J3-PDC patient-derived colon adenocarcinoma cell line growth inhibition [CLK]
# Conditions: for IC50: curve of first compound; for viability, T/C: stronger effect = lower value
# How it was run: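 Multi-cell-type spheroids combined patient-derived tumor cells with HUVEC endothelial cells and human mesenchymal stem cells. Paired agents were dosed in half-log steps down from about clinical Cmax, or from 10 microM where Cmax was unknown.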
# [1] = second compound 0.0316 µM, first compound 0.0316 µM
# [2] = second compound 0.0316 µM, first compound 0.1 µM
# [3] = second compound 0.0316 µM, first compound 0.316 µM
# [4] = second compound 0.0316 µM, first compound 1 µM
# [5] = second compound 0.0316 µM, first compound 3.16 µM
# [6] = second compound 0.0316 µM, first compound 10 µM
# [7] = second compound 0.1 µM, first compound 0.0316 µM
# [8] = second compound 0.1 µM, first compound 0.1 µM
# [9] = second compound 0.1 µM, first compound 0.316 µM
# [10] = second compound 0.1 µM, first compound 1 µM
# [11] = second compound 0.1 µM, first compound 3.16 µM
# [12] = second compound 0.1 µM, first compound 10 µM
# [13] = second compound 0.316 µM, first compound 0.0316 µM
# [14] = second compound 0.316 µM, first compound 0.1 µM
# [15] = second compound 0.316 µM, first compound 0.316 µM
# [16] = second compound 0.316 µM, first compound 1 µM
# [17] = second compound 0.316 µM, first compound 3.16 µM
# [18] = second compound 0.316 µM, first compound 10 µM
# [19] = second compound 1 µM, first compound 0.0316 µM
# [20] = second compound 1 µM, first compound 0.1 µM
# [21] = second compound 1 µM, first compound 0.316 µM
# [22] = second compound 1 µM, first compound 1 µM
# [23] = second compound 1 µM, first compound 3.16 µM
# [24] = second compound 1 µM, first compound 10 µM
# [25] = second compound 3.16 µM, first compound 0.0316 µM
# [26] = second compound 3.16 µM, first compound 0.1 µM
# [27] = second compound 3.16 µM, first compound 0.316 µM
# [28] = second compound 3.16 µM, first compound 1 µM
# [29] = second compound 3.16 µM, first compound 3.16 µM
# [30] = second compound 3.16 µM, first compound 10 µM
# [31] = second compound 10 µM, first compound 0.0316 µM
# [32] = second compound 10 µM, first compound 0.1 µM
# [33] = second compound 10 µM, first compound 0.316 µM
# [34] = second compound 10 µM, first compound 1 µM
# [35] = second compound 10 µM, first compound 3.16 µM
# [36] = second compound 10 µM, first compound 10 µM
# 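Note: spheroids exposed to the drug combinations for seven days.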
# 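Throughout, for viability, T/C: percent viability relative to DMSO vehicle control wells taken as 100%.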
smiles,measurement,setting,value
C=C(F)C(=O)N1CCN(c2nc(OCC3CCCN3C)nc3c2CCN(c2cccc4cccc(Cl)c24)C3)CC1CC#N (stereo unspecified) + CN1CCN(c2cc(C(=O)Nc3cc4cc(-c5cnn(C)c5)ccc4cn3)ccn2)CC1,IC50,second compound 0.0316 µM,> 10000 nM
same,IC50,second compound 0.1 µM,> 10000 nM
same,IC50,second compound 0.316 µM,9650 nM
same,IC50,second compound 1 µM,< 31.6 nM
same,IC50,second compound 3.16 µM,< 31.6 nM
same,IC50,second compound 10 µM,< 31.6 nM
same,"viability, T/C",[1],95.2%
same,"viability, T/C",[2],104%
same,"viability, T/C",[3],91.5%
same,"viability, T/C",[4],100%
same,"viability, T/C",[5],94.1%
same,"viability, T/C",[6],84%
same,"viability, T/C",[7],99.6%
same,"viability, T/C",[8],90.9%
same,"viability, T/C",[9],103%
same,"viability, T/C",[10],96%
same,"viability, T/C",[11],95.2%
same,"viability, T/C",[12],85.1%
same,"viability, T/C",[13],93.6%
same,"viability, T/C",[14],90.3%
same,"viability, T/C",[15],82.9%
same,"viability, T/C",[16],98.6%
same,"viability, T/C",[17],87.8%
same,"viability, T/C",[18],48.6%
same,"viability, T/C",[19],1.94%
same,"viability, T/C",[20],3.93%
same,"viability, T/C",[21],4.58%
same,"viability, T/C",[22],0.73%
same,"viability, T/C",[23],5.08%
same,"viability, T/C",[24],0.83%
same,"viability, T/C",[25],0.56%
same,"viability, T/C",[26],0.88%
same,"viability, T/C",[27],0.69%
same,"viability, T/C",[28],0.56%
same,"viability, T/C",[29],0.42%
same,"viability, T/C",[30],0.12%
same,"viability, T/C",[31],0.42%
same,"viability, T/C",[32],0.74%
same,"viability, T/C",[33],0.44%
same,"viability, T/C",[34],0.95%
same,"viability, T/C",[35],0.32%
same,"viability, T/C",[36],0.72%
O=c1[nH]cc(F)c(=O)[nH]1 + CNC(=O)c1ccc(Nc2nc(OC3CCCC3)c3c(-c4ccc5nc(C)oc5c4)c[nH]c3n2)c(OC)c1,IC50,second compound 0.0316 µM,316 nM
same,IC50,second compound 0.1 µM,199 nM
same,IC50,second compound 0.316 µM,166 nM
same,IC50,second compound 1 µM,166 nM
same,IC50,second compound 3.16 µM,150 nM
same,IC50,second compound 10 µM,195 nM
same,"viability, T/C",[1],91.5%
same,"viability, T/C",[2],95.7%
same,"viability, T/C",[3],49.8%
same,"viability, T/C",[4],28.5%
same,"viability, T/C",[5],20.1%
same,"viability, T/C",[6],19.1%
same,"viability, T/C",[7],73%
same,"viability, T/C",[8],72.4%
same,"viability, T/C",[9],35.2%
same,"viability, T/C",[10],21.4%
same,"viability, T/C",[11],15.1%
same,"viability, T/C",[12],20.4%
same,"viability, T/C",[13],81%
same,"viability, T/C",[14],60.5%
same,"viability, T/C",[15],36.8%
same,"viability, T/C",[16],20.7%
same,"viability, T/C",[17],14.9%
same,"viability, T/C",[18],16.5%
same,"viability, T/C",[19],70.6%
same,"viability, T/C",[20],68.7%
same,"viability, T/C",[21],26.2%
same,"viability, T/C",[22],11.4%
same,"viability, T/C",[23],7.78%
same,"viability, T/C",[24],9.54%
same,"viability, T/C",[25],70.8%
same,"viability, T/C",[26],63.1%
same,"viability, T/C",[27],26.9%
same,"viability, T/C",[28],15.5%
same,"viability, T/C",[29],7.07%
same,"viability, T/C",[30],6.87%
same,"viability, T/C",[31],69.6%
same,"viability, T/C",[32],75.3%
same,"viability, T/C",[33],33.6%
same,"viability, T/C",[34],16%
same,"viability, T/C",[35],7.38%
same,"viability, T/C",[36],8.24%
Cn1ncnc1[C@H]1c2n[nH]c(=O)c3cc(F)cc(c23)N[C@@H]1c1ccc(F)cc1 + CNC(=O)c1ccc(Nc2nc(OC3CCCC3)c3c(-c4ccc5nc(C)oc5c4)c[nH]c3n2)c(OC)c1,IC50,second compound 0.0316 µM,> 100 nM
same,IC50,second compound 0.1 µM,> 100 nM
same,IC50,second compound 0.316 µM,> 100 nM
same,IC50,second compound 1 µM,> 100 nM
same,IC50,second compound 3.16 µM,> 100 nM
same,IC50,second compound 10 µM,> 100 nM
same,"viability, T/C","second compound 0.0316 µM, first compound 0.000316 µM",91.3%
same,"viability, T/C","second compound 0.0316 µM, first compound 0.001 µM",96.5%
same,"viability, T/C","second compound 0.0316 µM, first compound 0.00316 µM",91%
same,"viability, T/C","second compound 0.0316 µM, first compound 0.01 µM",95.9%
same,"viability, T/C",[1],110%
same,"viability, T/C",[2],103%
same,"viability, T/C","second compound 0.1 µM, first compound 0.000316 µM",77.5%
same,"viability, T/C","second compound 0.1 µM, first compound 0.001 µM",71.4%
same,"viability, T/C","second compound 0.1 µM, first compound 0.00316 µM",77.2%
same,"viability, T/C","second compound 0.1 µM, first compound 0.01 µM",71.8%
same,"viability, T/C",[7],78.8%
same,"viability, T/C",[8],60.8%
same,"viability, T/C","second compound 0.316 µM, first compound 0.000316 µM",80.5%
same,"viability, T/C","second compound 0.316 µM, first compound 0.001 µM",75.5%
same,"viability, T/C","second compound 0.316 µM, first compound 0.00316 µM",58.6%
same,"viability, T/C","second compound 0.316 µM, first compound 0.01 µM",57.7%
same,"viability, T/C",[13],66%
same,"viability, T/C",[14],64.5%
same,"viability, T/C","second compound 1 µM, first compound 0.000316 µM",76.5%
same,"viability, T/C","second compound 1 µM, first compound 0.001 µM",87.3%
same,"viability, T/C","second compound 1 µM, first compound 0.00316 µM",79.8%
same,"viability, T/C","second compound 1 µM, first compound 0.01 µM",74.1%
same,"viability, T/C",[19],56.8%
same,"viability, T/C",[20],59.7%
same,"viability, T/C","second compound 3.16 µM, first compound 0.000316 µM",67.3%
same,"viability, T/C","second compound 3.16 µM, first compound 0.001 µM",69%
same,"viability, T/C","second compound 3.16 µM, first compound 0.00316 µM",69.3%
same,"viability, T/C","second compound 3.16 µM, first compound 0.01 µM",67.8%
same,"viability, T/C",[25],72.8%
same,"viability, T/C",[26],64.8%
same,"viability, T/C","second compound 10 µM, first compound 0.000316 µM",67.1%
same,"viability, T/C","second compound 10 µM, first compound 0.001 µM",56.3%
same,"viability, T/C","second compound 10 µM, first compound 0.00316 µM",74.3%
same,"viability, T/C","second compound 10 µM, first compound 0.01 µM",73.9%
same,"viability, T/C",[31],50.5%
same,"viability, T/C",[32],58.1%
